In patent US12370168B2 (scPharmaceuticals Inc., priority 2013, dated 2025):
Read-outs that look alike come from different tables or passages of the source.

Legend:
[1] = 8 mg/mL; for Osmolality / [Furosemide] / pH: three months
[2] = Example 3 stability of 20 mg/mL furosemide Tris-buffered solutions, pH 6.7 to 8.5, ambient temperature; settings: Tris buffer pH 6.7 to 8.5, ambient temperature, over 48 hours
Procedure: Samples were stored at ambient temperature and subsequently analyzed after 24 and 48 hours of storage.

[3] = 25 mM Tris, nominal pH 7.0, 70° C.
[4] = 25 mM Tris, nominal pH 7.4, 70° C.
[5] = 25 mM Tris, nominal pH 8.0, 70° C.
[6] = 50 mM Tris, nominal pH 7.0, 70° C.
[7] = 50 mM Tris, nominal pH 7.4, 70° C.
[8] = 50 mM Tris, nominal pH 8.0, 70° C.
[9] = 100 mM Tris, nominal pH 7.0, 70° C.
[10] = 100 mM Tris, nominal pH 7.4, 70° C.
[11] = 100 mM Tris, nominal pH 8.0, 70° C.
[12] = 25, 50, 100 mM Tris, pH 7.0, 7.4, 8.0, 70° C., 3 months

NS(=O)(=O)c1cc(C(=O)O)c(NCc2ccco2)cc1Cl [Furosemide, 4-chloro-2-(furan-2-ylmethylamino)-5-sulfamoyl-benzoic acid]
Osmolality [1, 3]: 308 mOsm/kg H2O
[Furosemide] [1, 3]: <0.002 mg/mL
pH [1, 3]: 4.44
Osmolality [1, 4]: 299 mOsm/kg H2O
[Furosemide] [1, 4]: <0.002 mg/mL
pH [1, 4]: 4.57
Osmolality [1, 5]: 297 mOsm/kg H2O
[Furosemide] [1, 5]: 1.16 mg/mL
pH [1, 5]: 5.26
Osmolality [1, 6]: 305 mOsm/kg H2O
[Furosemide] [1, 6]: <0.002 mg/mL
pH [1, 6]: 4.50
Osmolality [1, 7]: 311 mOsm/kg H2O
[Furosemide] [1, 7]: <0.002 mg/mL
pH [1, 7]: 4.73
Osmolality [1, 8]: 311 mOsm/kg H2O
[Furosemide] [1, 8]: 3.60 mg/mL
pH [1, 8]: 7.30
Osmolality [1, 9]: 306 mOsm/kg H2O
[Furosemide] [1, 9]: <0.002 mg/mL
pH [1, 9]: 4.54
Osmolality [1, 10]: 312 mOsm/kg H2O
[Furosemide] [1, 10]: 0.58 mg/mL
pH [1, 10]: 5.68
Osmolality [1, 11]: 303 mOsm/kg H2O
[Furosemide] [1, 11]: 3.67 mg/mL
pH [1, 11]: 7.56
change in furosemide concentration [1, 12]: decreased significantly
change in osmolality [1, 12]: slightly increased
change in pH [1, 12]: decreased significantly
color of samples [1, 12]: dark brown
change in furosemide concentration [2]: No decrease
pH deviation from the initial value [2]: ≤ 0.1 units
